Data reported in ChEMBL document CHEMBL4715827, “Structure-guided design of pyridoclax derivatives based on Noxa / Mcl-1 interaction mode” (Eur J Med Chem, 2018).
Blank lines part the entries; values can stand above or below the compound they belong to. The source made the active and inactive calls. The rule behind the calls is not given here.

Legend:
[1] = system: IGROV1-R10; test: Pro-apoptotic activity in human IGROV1-R10 cells transfected with Bcl-xL siRNA assessed as increase in cleaved PARP expression at 25 uM measured after 24 hrs by Western blot analysis; format: functional, cell-based
[2] = system: IGROV1-R10; test: Pro-apoptotic activity in human IGROV1-R10 cells transfected with Bcl-xL siRNA assessed as increase in cleaved caspase-3 expression at 25 uM measured after 24 hrs by Western blot analysis; format: functional, cell-based
[3] = Pro-apoptotic activity in human IGROV1-R10 cells transfected with Bcl-xL siRNA assessed as accumulation at sub G1 phase at 25 uM incubated for 24 hrs by propidium iodide staining based flow cytometry analysis (reference value: 17% ); format: functional
[4] = Pro-apoptotic activity in human IGROV1-R10 cells transfected with Bcl-xL siRNA assessed as condensed nuclei at 25 uM measured after 24 hrs by DAPI staining based fluorescence microscopy analysis relative to control; format: functional
[5] = system: IGROV1-R10; test: Pro-apoptotic activity in human IGROV1-R10 cells transfected with Bcl-xL siRNA assessed as morphological alteration at 25 uM measured after 24 hrs by DAPI staining based fluorescence microscopy analysis; format: functional, cell-based
[6] = Pro-apoptotic activity in human IGROV1-R10 cells transfected with control siRNA assessed as accumulation at sub G1 phase at 25 uM incubated for 24 hrs by propidium iodide staining based flow cytometry analysis (reference value: 4.5% ); format: functional
[7] = molecular target: Induced myeloid leukemia cell differentiation protein Mcl-1 (Homo sapiens) (UniProt Q07820); test: Inhibition of FAM-Bim peptide binding to MCL-1 in human MCF-7 cells assessed as disruption by BRET assay; format: cell-based; details: MCF7
Sequence of Induced myeloid leukemia cell differentiation protein Mcl-1 (Homo sapiens) (Q07820 whole entry): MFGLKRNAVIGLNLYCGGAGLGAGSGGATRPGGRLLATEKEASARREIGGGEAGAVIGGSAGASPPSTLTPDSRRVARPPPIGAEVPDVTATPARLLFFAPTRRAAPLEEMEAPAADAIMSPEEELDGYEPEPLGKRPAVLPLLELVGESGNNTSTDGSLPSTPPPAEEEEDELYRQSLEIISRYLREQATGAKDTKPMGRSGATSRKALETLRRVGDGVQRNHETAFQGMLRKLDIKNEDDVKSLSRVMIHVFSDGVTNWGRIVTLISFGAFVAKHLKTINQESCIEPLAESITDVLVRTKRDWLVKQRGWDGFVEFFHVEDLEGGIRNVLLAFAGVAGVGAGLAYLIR

[8] = system: IGROV1-R10; test: Induction of apoptosis in human IGROV1-R10 cells assessed as up regulation of NOXA by Western blot analysis; format: functional, cell-based
[9] = Cytotoxicity against human IGROV1-R10 cells transfected with siMCL1 at 15 uM after 24 hrs by fluorescence microscopic analysis; format: cell-based; details: igrov1-r10, 24 h
[10] = Pro-apoptotic activity in human IGROV1-R10 cells assessed as accumulation at sub G1 phase at 25 uM incubated for 24 hrs by propidium iodide staining based flow cytometry analysis (reference value: 2.8% ); format: functional
[11] = Pro-apoptotic activity in human IGROV1-R10 cells assessed as accumulation at sub G1 phase at 25 uM incubated for 24 hrs in presence of ABT-737 by propidium iodide staining based flow cytometry analysis (reference value: 21.2% ); format: functional
[12] = Pro-apoptotic activity in human IGROV1-R10 cells assessed as accumulation at sub G1 phase at 10 uM incubated for 24 hrs by propidium iodide staining based flow cytometry analysis (reference value: 2 % ); format: functional
[13] = Pro-apoptotic activity in human IGROV1-R10 cells assessed as accumulation at sub G1 phase at 15 uM incubated for 24 hrs by propidium iodide staining based flow cytometry analysis (reference value: 2 % ); format: functional
[14] = Pro-apoptotic activity in human IGROV1-R10 cells assessed as accumulation at sub G1 phase at 10 uM incubated for 24 hrs in presence of ABT-737 by propidium iodide staining based flow cytometry analysis (reference value: 10.8% ); format: functional
[15] = Pro-apoptotic activity in human IGROV1-R10 cells assessed as accumulation at sub G1 phase at 15 uM incubated for 24 hrs in presence of ABT-737 by propidium iodide staining based flow cytometry analysis (reference value: 10.8% ); format: functional
[16] = system: IGROV1-R10; test: Pro-apoptotic activity in human IGROV1-R10 cells assessed as cleaved PARP expression at 15 uM measured after 24 hrs in presence of ABT-737 by Western blot analysis; format: functional, cell-based
[17] = system: IGROV1-R10; test: Pro-apoptotic activity in human IGROV1-R10 cells assessed as cleaved caspase-3 expression at 15 uM measured after 24 hrs in presence of ABT-737 by Western blot analysis; format: functional, cell-based
[18] = Pro-apoptotic activity in human IGROV1-R10 cells transfected with Bcl-xL siRNA assessed as accumulation at sub G1 phase at 15 uM incubated for 4 hrs by propidium iodide staining based flow cytometry analysis relative to control; format: functional
[19] = Pro-apoptotic activity in human IGROV1-R10 cells transfected with Bcl-xL siRNA assessed as accumulation at sub G1 phase at 15 uM incubated for 6 hrs by propidium iodide staining based flow cytometry analysis relative to control; format: functional
[20] = Pro-apoptotic activity in human IGROV1-R10 cells transfected with Bcl-xL siRNA assessed as accumulation at sub G1 phase at 15 uM incubated for 8 hrs by propidium iodide staining based flow cytometry analysis relative to control; format: functional
[21] = Pro-apoptotic activity in human IGROV1-R10 cells transfected with Bcl-xL siRNA assessed as accumulation at sub G1 phase at 15 uM incubated for 12 hrs by propidium iodide staining based flow cytometry analysis relative to control; format: functional
[22] = Pro-apoptotic activity in human IGROV1-R10 cells transfected with Bcl-xL siRNA assessed as accumulation at sub G1 phase at 15 uM incubated for 24 hrs by propidium iodide staining based flow cytometry analysis relative to control; format: functional
[23] = system: IGROV1-R10; test: Pro-apoptotic activity in human IGROV1-R10 cells transfected with Bcl-xL siRNA assessed as cleaved PARP expression at 15 uM incubated for 8 hrs by Western blot analysis; format: functional, cell-based
[24] = system: IGROV1-R10; test: Pro-apoptotic activity in human IGROV1-R10 cells transfected with Bcl-xL siRNA assessed as cleaved caspase-3 expression at 15 uM incubated for 8 hrs by Western blot analysis; format: functional, cell-based
[25] = system: SK-OV-3; test: Pro-apoptotic activity in human SKOV3 cells assessed as increase in caspase3/7 positive cells at 15 uM measured after 24 hrs in presence of ABT-737 by DAPI staining based fluorescence microscopy analysis; format: functional, cell-based
[26] = system: A2780; test: Pro-apoptotic activity in human A2780 cells assessed as increase in caspase3/7 positive cells at 15 uM measured after 24 hrs in presence of ABT-737 by DAPI staining based fluorescence microscopy analysis; format: functional, cell-based
[27] = system: A549; test: Pro-apoptotic activity in human A549 cells assessed as accumulation subG1 phase at 15 uM after 24 hrs by flow cytometry (reference value: 2.5%); format: functional
[28] = system: A549; test: Pro-apoptotic activity in human A549 cells assessed as accumulation subG1 phase at 15 uM after 24 hrs in presence of ABT-737 by flow cytometry (reference value: 3.83%); format: functional
[29] = Cytotoxicity against human AG1521 cells assessed as accumulation subG1 phase at 15 uM after 24 hrs by flow cytometry (reference value: 1.7%); format: cell-based; details: ag1521, 24 h
[30] = Cytotoxicity against human AG1521 cells assessed as accumulation subG1 phase at 15 uM after 24 hrs in presence of ABT-737 by flow cytometry (reference value: 1.64%); format: cell-based; details: ag1521, 24 h
[31] = Pro-apoptotic activity in human IGROV1-R10 cells transfected with Bax siRNA assessed as accumulation at sub G1 phase at 15 uM incubated for 24 hrs by propidium iodide staining based flow cytometry analysis (reference value: 3.2% ); format: functional
[32] = Pro-apoptotic activity in human IGROV1-R10 cells transfected with Bak siRNA assessed as accumulation at sub G1 phase at 15 uM incubated for 24 hrs by propidium iodide staining based flow cytometry analysis (reference value: 3.4%); format: functional
[33] = Pro-apoptotic activity in human IGROV1-R10 cells transfected with Bak and Bax siRNA assessed as accumulation at sub G1 phase at 15 uM incubated for 24 hrs by propidium iodide staining based flow cytometry analysis (reference value: 4.3%); format: functional
[34] = Pro-apoptotic activity in human IGROV1-R10 cells transfected with Bax siRNA assessed as accumulation at sub G1 phase at 15 uM incubated for 24 hrs in presence of ABT-737 by propidium iodide staining based flow cytometry analysis (reference value: 3.2% ); format: functional
[35] = Pro-apoptotic activity in human IGROV1-R10 cells transfected with Bak siRNA assessed as accumulation at sub G1 phase at 15 uM incubated for 24 hrs in presence of ABT-737 by propidium iodide staining based flow cytometry analysis (reference value: 3.4% ); format: functional
[36] = Pro-apoptotic activity in human IGROV1-R10 cells transfected with Bak and Bax siRNA assessed as accumulation at sub G1 phase at 15 uM incubated for 24 hrs in presence of ABT-737 by propidium iodide staining based flow cytometry analysis (reference value: 4.3% ); format: functional
[37] = system: IGROV1-R10; test: Pro-apoptotic activity in human IGROV1-R10 cells transfected with Bak siRNA assessed as condensed nuclei at 15 uM incubated for 24 hrs in presence of ABT-737 by DAPI staining based fluorescence microscopic analysis; format: functional, cell-based
[38] = system: IGROV1-R10; test: Pro-apoptotic activity in human IGROV1-R10 cells transfected with Bak siRNA assessed as cleaved PARP level at 15 uM incubated for 24 hrs in presence of ABT-737 by Western blot analysis; format: functional, cell-based
[39] = system: IGROV1-R10; test: Pro-apoptotic activity in human IGROV1-R10 cells transfected with Bak siRNA assessed as cleaved caspase-3 level at 15 uM incubated for 24 hrs in presence of ABT-737 by Western blot analysis; format: functional, cell-based
[40] = system: SK-OV-3; test: Pro-apoptotic activity in human SKOV3 cells assessed as increase in caspase3/7 positive cells at 25 uM measured after 24 hrs in presence of ABT-737 by DAPI staining based fluorescence microscopy analysis; format: functional, cell-based
[41] = system: A2780; test: Pro-apoptotic activity in human A2780 cells assessed as increase in caspase3/7 positive cells at 25 uM measured after 24 hrs in presence of ABT-737 by DAPI staining based fluorescence microscopy analysis; format: functional, cell-based

Structure (SMILES): Cc1cc(-c2ncc(-c3cccnc3)cc2/C=C/c2ccccc2)cnc1-c1cccc(CC#N)c1
Activity [1]: Active
Activity [2]: Active
Activity [3]: 43%
Activity [4]: 35.1%
Activity [5]: inactive
Activity [6]: 6.5%

inhibition [7]: inactive
Structure (SMILES): Cc1cc(-c2ncc(-c3cccnc3)cc2/C=C/c2ccccc2)cnc1-c1cccc(CC(=O)O)c1
Activity [1]: Active
Activity [2]: inactive
Activity [3]: 14.5%
Activity [4]: 7.8%
Activity [5]: inactive
Activity [6]: 6%

Structure (SMILES): Cc1cc(-c2ncc(-c3cccc(CC#N)c3)cc2/C=C/c2ccccc2)cnc1-c1cccnc1
Activity [1]: Active
Activity [2]: Active
Activity [3]: 36.9%
Activity [4]: 25.3%
Activity [5]: inactive
Activity [6]: 53%

Structure (SMILES): Cc1cc(-c2ncc(-c3cccnc3)cc2/C=C/c2ccccc2)cnc1-c1cccc(O)c1
Activity [1]: Active
Activity [2]: Active
Activity [3]: 52.2%
Activity [4]: 35.9%
Activity [5]: inactive
Activity [6]: 12.5%

Structure (SMILES): Cc1cc(-c2ncc(-c3cccc(CC(=O)O)c3)cc2/C=C/c2ccccc2)cnc1-c1cccnc1
Activity [1]: Active
Activity [2]: Active
Activity [3]: 46.8%
Activity [4]: 31.7%
Activity [5]: inactive
Activity [6]: 4.6%

Structure (SMILES): Cc1cc(-c2ncc(-c3cccc(C/C(N)=N/O)c3)cc2/C=C/c2ccccc2)cnc1-c1cccnc1
Activity [1]: Active
Activity [2]: Active
Activity [3]: 45.3%
Activity [4]: 28%
Activity [5]: inactive
Activity [6]: 4.8%

inhibition [7]: Active
Structure (SMILES): Cc1cc(-c2ncc(-c3cccnc3)cc2/C=C/c2ccccc2)cnc1-c1cccc(C/C(N)=N/O)c1
Activity [8]: Active
Activity [9]: Non-Toxic
Activity [1]: Active
Activity [2]: Active
Activity [3]: 59%
Activity [4]: 91.3%
Activity [5]: Active
Activity [6]: 47.8%
Activity [10]: 40.69%
Activity [11]: 55.75%
Activity [12]: 2.2%
Activity [13]: 2.8%
Activity [14]: 34.3%
Activity [15]: 57.43%
Activity [16]: Active
Activity [17]: Active
Activity [18]: 14.1%
Activity [19]: 19.3%
Activity [20]: 35.2%
Activity [21]: 52.2%
Activity [22]: 64.8%
Activity [23]: Active
Activity [24]: Active
Activity [25]: Active
Activity [26]: Active
Activity [27]: 12.93%
Activity [28]: 68.86%
Activity [29]: 1.98%
Activity [30]: 3.33%
Activity [31]: 7%
Activity [32]: 6.8%
Activity [33]: 6%
Activity [34]: 56.7%
Activity [35]: 41%
Activity [36]: 27.9%
Activity [37]: inactive
Activity [38]: inactive
Activity [39]: inactive

Structure (SMILES): Cc1cc(-c2ncc(-c3cccnc3)cc2/C=C/c2ccccc2)cnc1-c1cccnc1
Activity [1]: Active
Activity [2]: Active
Activity [3]: 62.76%
Activity [4]: 63.4%
Activity [5]: inactive
Activity [10]: 6.46%
Activity [11]: 70.99%
Activity [12]: 2.5%
Activity [13]: 4.9%
Activity [14]: 22.5%
Activity [15]: 36.1%
Activity [40]: Active
Activity [41]: Active

Structure (SMILES): Cc1cc(-c2ncc(-c3cccc(O)c3)cc2/C=C/c2ccccc2)cnc1-c1cccnc1
Activity [1]: Active
Activity [2]: Active
Activity [3]: 37.5%
Activity [4]: 19.9%
Activity [5]: inactive
Activity [6]: 5.5%
